The compounds below were run on HT-22 (assay: Neuroprotective activity against glutamate-induced cell death in mouse HT-22 cells assessed as increase in cell viability after 24 hrs by EZ-Cytox assay). Conditions: HT-22, 24 h.
Assay type: functional, cell-based

| SMILES | EC50 [µM] |
| --- | --- |
| COc1ccc(-c2cc(=O)c3c(O)cc(O[C@@H]4O[C@H](CO[C@@H]5O[C@@H](C)[C@H](OC(C)=O)[C@@H](O)[C@H]5O)[C@@H](O)[C@H](O)[C@H]4O[C@@H]4O[C@H](CO)[C@@H](O)[C@H](O)[C@H]4O)cc3o2)cc1 | 69.7 |
| O=C1/C(=C/c2ccc(O)c(O)c2)Oc2cc(O)ccc21 [SULFURETIN] | 3.5 |
| COc1c(O)c(OC)c2c(=O)cc(-c3ccccc3)oc2c1OC | 43.6 |
| O=C(O)/C=C\c1ccc(O)cc1 | > 100 |
| COc1ccc(/C=C/C(=O)c2ccc(O[C@@H]3O[C@H](CO)[C@@H](O)[C@H](O)[C@H]3O)cc2O)cc1O | 63.4 |
| COc1ccc(-c2cc(=O)c3c(O)cc(O)cc3o2)cc1O [DIOSMETIN] | 59.7 |
| COc1cc(/C=C/C(=O)NC[C@H](O)c2ccc(O)cc2)ccc1O | 32.3 |
| O=C(/C=C/c1ccc(O)cc1)c1ccc(O[C@@H]2O[C@H](CO)[C@@H](O)[C@H](O)[C@H]2O)cc1O | 72 |
| O=C(/C=C/c1ccc(O)c(O)c1)O[C@@H]1C[C@](O)(C(=O)O)C[C@@H](OC(=O)/C=C/c2ccc(O)c(O)c2)[C@H]1O | > 100 |
| O=Cc1ccc(O)cc1 [4-HYDROXYBENZALDEHYDE] | 33.2 |
| O=C(/C=C/c1ccc(O)c(O)c1)O[C@H](Cc1ccc(O)c(O)c1)C(=O)O [ROSMARINIC ACID] | 86 |
| CCOC(=O)/C=C/c1ccc(O)c(O)c1 [ETHYL CAFFEATE] | 1.9 |
| COc1ccc(-c2cc(=O)c3c(O)cc(O[C@@H]4O[C@H](CO[C@@H]5O[C@@H](C)[C@H](O)[C@@H](O)[C@H]5O)[C@@H](O)[C@H](O)[C@H]4O[C@@H]4O[C@H](COC(C)=O)[C@@H](O)[C@H](O)[C@H]4O)cc3o2)cc1 | > 100 |
| O=c1cc(-c2ccc(O)cc2)oc2cc(O[C@@H]3O[C@H](CO)[C@@H](O)[C@H](O)[C@H]3O)cc(O)c12 [APIGETRIN] | > 100 |
| CC(=O)/C=C/c1ccc(O)c(O)c1 | 1.5 |
| OC[C@H]1O[C@@H](OCc2ccccc2)[C@H](O)[C@@H](O)[C@@H]1O | > 100 |
| COc1ccc(/C=C/C(=O)c2ccc(O[C@@H]3O[C@H](CO)[C@@H](O)[C@H](O)[C@H]3O)c(O)c2O)cc1O | 4.7 |
| COc1ccc(-c2cc(=O)c3c(O)cc(O[C@@H]4O[C@H](CO[C@@H]5O[C@@H](C)[C@H](O)[C@@H](O)[C@H]5O)[C@@H](O)[C@H](O)[C@H]4O)cc3o2)cc1 [ACACIIN] | 69.3 |
| COc1ccc(/C=C/C(=O)c2ccc(O)cc2O)cc1O | 35.2 |

| SMILES | EC50 [µM] |
| --- | --- |
| COc1ccc(-c2cc(=O)c3c(O)cc(O[C@@H]4O[C@H](CO[C@@H]5O[C@@H](C)[C@H](OC(C)=O)[C@@H](O)[C@H]5O)[C@@H](O)[C@H](O)[C@H]4O)cc3o2)cc1 | > 100 |
| COc1ccc(-c2cc(=O)c3c(O)cc(O[C@@H]4O[C@H](CO[C@@H]5O[C@@H](C)[C@H](O)[C@@H](OC(C)=O)[C@H]5O)[C@@H](O)[C@H](O)[C@H]4O[C@@H]4O[C@H](COC(C)=O)[C@@H](O)[C@H](O)[C@H]4O)cc3o2)cc1 | > 100 |
| COc1ccc(-c2cc(=O)c3c(O)cc(O[C@@H]4O[C@H](CO[C@@H]5O[C@@H](C)[C@H](OC(C)=O)[C@@H](O)[C@H]5O)[C@@H](O)[C@H](O)[C@H]4O[C@@H]4O[C@H](COC(C)=O)[C@@H](O)[C@H](O)[C@H]4O)cc3o2)cc1 | > 100 |
| O=c1cc(-c2ccc(O)cc2)oc2cc(O)cc(O)c12 [APIGENIN] | > 100 |
| O=C(O)c1ccc(O)c(O)c1 [PROTOCATECHUIC ACID] | > 100 |
| O=C1C[C@@H](c2ccc(O)c(O)c2)Oc2c1ccc(O)c2O | 6.2 |
| CC(=O)/C=C/c1ccc(O)c(O[C@@H]2O[C@H](COC(=O)/C=C/c3ccc(O)c(O)c3)[C@@H](O)[C@H](O)[C@H]2O)c1 | 62.2 |
| O=C1/C=C/c2ccc(O)c(c2)O[C@@H]2O[C@H](COC(=O)/C=C/c3cc(O)c(O)cc3C1)[C@@H](O)[C@H](O)[C@H]2O | 8.3 |
| COc1cc(C(=O)O)ccc1O [VANILLIC ACID] | 27.8 |
| O=C(/C=C/c1ccc(O)c(O)c1)O[C@H]1CC[C@@H](O)[C@H]1O | > 100 |
| O=C(O)/C=C/c1ccc(O)cc1 [COUMARIC ACID] | 6.4 |
| CC(C)=CCC/C(C)=C\CO[C@@H]1O[C@H](CO)[C@@H](O)[C@H](O)[C@H]1O | > 100 |
| COc1cc2oc(-c3ccccc3)cc(=O)c2c(O)c1OC [MOSLOFLAVONE] | 23.4 |
| O=C(O)c1ccc(O)cc1 [PARABEN] | > 100 |
| COc1ccc(-c2cc(=O)c3c(O)cc(O[C@@H]4O[C@H](CO[C@@H]5O[C@@H](C)[C@H](OC(C)=O)[C@@H](O)[C@H]5O)[C@@H](O)[C@H](O)[C@H]4O[C@@H]4O[C@H](COC(C)=O)[C@@H](O)[C@H](OC(C)=O)[C@H]4O)cc3o2)cc1 | > 100 |
| CC(=O)N[C@@H](CS)C(=O)O [ACETYLCYSTEINE] | 700 |
| O=C(O)/C=C/C=C/c1ccc(O)c(O[C@@H]2O[C@H](COC(=O)/C=C/c3ccc(O)c(O)c3)[C@@H](O)[C@H](O)[C@H]2O)c1 | 56.2 |
| O=C(O)/C=C/c1ccc(O)c(O)c1 [CAFFEIC ACID] | 77.1 |
